Like-named read-outs stand apart in the source and are kept apart here.
Columns and labels:
[1] = tested on: human gastric cancer strain (SC-2); conditions: 14 days, day 15, Test Example 3
Protocol: The resulting product was stirred with a stirrer at room temperature for about 10 minutes. […] Thereafter, ultrasonic treatment was performed under ice cooling for about 5 minutes, thereby obtaining a BOF-A2 drug liquid to be used at a dose of 14 mg/kg/day, 21 mg/kg/day, or 28 mg/kg/day. • (f) Experiment: The human gastric cancer strain (SC-2) was subcutaneously transplanted into the back of a BALB/cA-nu mouse and preliminarily proliferated therein. The proliferated strain was extracted, cut into about 2 mm square pieces with scissors in physiological saline, and subcutaneously inoculated to the right axillary region of mice of the same strain, 5 to 6 weeks of age, using a transplantation needle. […] Then, drug administration was initiated from the next day. Each of the test liquids shown in (a) to (e) above was administered orally to the mice in each of the test drug groups using a sonde for oral administration at a dose of 0.1 ml per 10 g body weight once a day for 14 continuous days. In the same manner as the above, the cancer-bearing mice in the control group were subjected to oral administration of only 0.5% HPMC liquid for 14 continuous days.
The tumor volume of each mouse in each group before the initiation of the treatment, on day 3, day 5, day 8 (1 week after), day 11, and day 15 (2 weeks after), i.e., after termination of the administration, was calculated using Equation 1 below, and respective relative tumor volume (RTV) relative to the tumor volume at the time of initiation of the treatment was calculated. In relation to the antitumor effect, the average value of the tumor proliferation inhibition ratio (IR; %) was calculated from the average tumor volume of each treatment group on day 15 (after termination of the treatment) relative to that of the control group on day 15, using Equation 2. […] Along therewith, a weight change ratio was calculated from the body weight of the mice at the time of the termination of the drug administration relative to the body weight of the mice at the time of the initiation of the administration, using Equation 3. […] Tumor volume(mm^3)=(major axis)×(minor axis)^2×½ Equation 1: Tumor proliferation inhibition ratio(IR, %)=[1−(average tumor volume of treatment group)/(average tumor volume of control group)]×100 Equation 2: Average weight change ratio(%)=[(average weight on Day 15)−(average weight on Day 1)]/(average weight on Day 1)×100 Equation 3: […]
The resulting product was stirred with a stirrer at room temperature for about 10 minutes. […] The proliferated strain was extracted, cut into about 2 mm square pieces with scissors in physiological saline, and subcutaneously inoculated to the right axillary region of mice of the same strain, 5 to 6 weeks of age, using a transplantation needle. […] Then, drug administration was initiated from the next day. Each of the test liquids shown in (a) to (c) above was administered orally to the mice in each of the test drug groups using a sonde for oral administration at a dose of 0.1 ml per 10 g body weight once a day for 14 continuous days. In the same manner as the above, the cancer-bearing mice in the control group were subjected to oral administration of only 0.5% HPMC liquid for 14 continuous days.
The tumor volume of each mouse in each group before the initiation of the treatment, on day 3, day 5, day 8 (1 week after), day 11, and day 15 (2 weeks after), i.e., after termination of the administration, was calculated using Equation 1 below, and respective relative tumor volume (RTV) relative to the tumor volume at the time of initiation of the treatment was calculated. In relation to the antitumor effect, the average value of the tumor proliferation inhibition ratio (IR; %) was calculated from the average tumor volume of each treatment group on day 15 (after termination of the treatment) relative to that of the control group on day 15, using Equation 2.

sarcoma 180 cells = assay: Inhibition of intracellular phosphorylation of 5-FU in cancer cells; type: cell-based, mouse; conditions: for inhibition at 10 µM / inhibition at 100 µM: Mus musculus, Sarcoma-180, 0.5 h
Protocol: (§1) • (a) Test liquid preparation 1: Compound I-2 or I-10 of the present invention was dissolved to a concentration of 1 mM in cold physiological saline. The resulting product was further diluted 10-fold with physiological saline, yielding a 100-μM solution. • (b) Test liquid preparation 2: As an OPRT inhibitor, which inhibits the phosphorylation of 5-FU, citrazinic acid (Citra.A.) was dissolved to a concentration of 1 mM in cold physiological saline, and further diluted 10-fold with physiological saline, yielding a 100-μM solution. • (c) Preparation of cancer cell suspension: Ascites-type sarcoma 180 cells were preliminarily transplanted intraperitoneally into an ICR mouse and proliferated therein for use in the test as raw (intact) cells. The proliferated cells were isolated and then washed with physiological saline. […] Immediately after the completion of the reaction, 4 mL of a cold Hanks solution was added to the reaction solution, and the cells were washed and separated by centrifugation. After this procedure was repeated twice, 2 mL of a cold 5% trichloroacetic acid (TCA) solution was added to the cell pellet to disrupt the cells, and 5-FU and its nucleotide metabolites were extracted. Subsequently, a portion of the nucleic acid extract was applied to a silica gel 60F254 plate and developed with a mixed liquid comprising chloroform-methanol-acetic acid (17:3:1) to isolate the nucleotide moiety. The radioactivity thereof was measured and the concentration of 5-FU phosphorylation was measured.
as §1, with “1: Compounds I-9, I-11, I-12, and I-13” for “1: Compound I-2 or I-10”, “invention were separately” for “invention was”, “saline. Each of the” for “saline. The”, “resulting products” for “resulting product”, “acid” for “acid (Citra.A.)”

[2] = Conc. 10 μM, 30 min. Incubation, 5-FU 2 μM, Table 6
[3] = Conc. 100 μM, 30 min. Incubation, 5-FU 2 μM, Table 6
[4] = Conc. 10 μM, 30 min. Incubation, 5-FU 2 μM, Table 6, read-out: Inhibition (%) of phosphorylation of 5-FU
[5] = Conc. 100 μM, 30 min. Incubation, 5-FU 2 μM, Table 6, read-out: Inhibition (%) of phosphorylation of 5-FU
[6] = concentration of 10 μM, reaction for 30 minutes, read-out: percent inhibition of intracellular phosphorylation of 5-FU
[7] = concentration of 100 μM, reaction for 30 minutes, read-out: percent inhibition of intracellular phosphorylation of 5-FU

| SMILES | RNA Fraction (sarcoma 180 cells; [2]) | RNA Fraction (sarcoma 180 cells; [3]) | inhibition at 10 µM (sarcoma 180 cells; [4]) | inhibition at 100 µM (sarcoma 180 cells; [5]) | inhibition at 10 µM (sarcoma 180 cells; [6]) | inhibition at 100 µM (sarcoma 180 cells; [7]) | also measured |
| --- | --- | --- | --- | --- | --- | --- | --- |
| CCOCn1cc(F)c(=O)n(C(=O)c2cccc(C(=O)Oc3nc(OC(=O)c4ccccc4)ccc3C#N)c2)c1=O [BOF-A2, reference compound] |  |  |  |  |  |  | Average weight change (%) ([1]; 14 mg/kg/day oral): 3.16%; Tumor proliferation inhibition ratio (%) ([1]; 14 mg/kg/day oral): 51.0%; Average weight change (%) ([1]; 21 mg/kg/day oral): −7.48%; Tumor proliferation inhibition ratio (%) ([1]; 21 mg/kg/day oral): 70.9%; Average weight change (%) ([1]; 28 mg/kg/day oral): −20.58%; Tumor proliferation inhibition ratio (%) ([1]; 28 mg/kg/day oral): 72.4% |
| CCOCn1cc(F)c(=O)n(C(=O)c2cccc(C(=O)Oc3cc(OC(=O)c4ccc(OC(=O)c5ccccc5)nc4OC(=O)c4ccccc4)c(Cl)cn3)c2)c1=O [Compound I-13, 3-{3-[4-(2,6-dibenzoyloxynicotinoyloxy)-5-chloro-2-pyridyloxycarbonyl]benzoyl}-1-ethoxymethyl-5-fluorouracil] | 26.63 pmol/1 × 10^7 cells | 25.68 pmol/1 × 10^7 cells | 58.1% | 59.4% | 35 to 57% | 56 to 63% |  |
| CCOCn1cc(F)c(=O)n(C(=O)c2cccc(C(=O)Oc3cc(O)c(Cl)cn3)c2)c1=O [Compound 8a, 3-{3-[4-hydroxy-5-chloro-2-pyridyloxycarbonyl]benzoyl}-1-ethoxymethyl-5-fluorouracil] |  |  |  |  |  |  | Average weight change (%) ([1]; 11.5 mg/kg/day oral): 0.34%; Tumor proliferation inhibition ratio (%) ([1]; 11.5 mg/kg/day oral): 52.8%; Average weight change (%) ([1]; 17.3 mg/kg/day oral): 2.32%; Tumor proliferation inhibition ratio (%) ([1]; 17.3 mg/kg/day oral): 58.1%; Average weight change (%) ([1]; 23.0 mg/kg/day oral): −18.11%; Tumor proliferation inhibition ratio (%) ([1]; 23.0 mg/kg/day oral): 77.7% |
| CCOCn1cc(F)c(=O)n(C(=O)c2cccc(C(=O)Oc3cc(OC(=O)c4cc(OC(=O)C(C)(C)C)nc(OC(=O)C(C)(C)C)c4)c(Cl)cn3)c2)c1=O [Compound I-12, 3-{3-[4-(2,6-dipivaloyloxyisonicotinoyloxy)-5-chloro-2-pyridyloxycarbonyl]benzoyl}-1-ethoxymethyl-5-fluorouracil] | 28.15 pmol/1 × 10^7 cells | 25.48 pmol/1 × 10^7 cells | 55.5% | 59.8% | 35 to 57% | 56 to 63% |  |
